This is an account of results in US11352330B2, “Phenoxymethyl derivatives” (Hoffmann-La Roche Inc., priority 2015, dated 2022).

The term IC50 denotes the point on the concentration scale where inhibition reaches its midpoint.

Molecules are shown by their SMILES. Where only a bound is given, the exact number is not on record here.

The assay addresses human ATX (Homo sapiens (Human), UniProt Q13822). Kind of assay: Human ATX enzyme inhibition assay (fluorescence quenching, MR121 substrate). Format: biochemical. As to conditions: human His-tagged ATX 30 nM, MR121 substrate 1 μM, 30° C. As for the experimental part: Human ATX Enzyme Inhibition Assay
ATX inhibition was measured by a fluorescence quenching assay using a specifically labeled substrate analogue (MR121 substrate). To obtain this MR121 substrate, BOC and TBS protected 6-amino-hexanoic acid (R)-3-({2-[3-(2-{2-[2-(2-amino-ethoxy)-ethoxy]-ethoxy}-ethoxy)-propionylamino]-ethoxy}-hydroxy-phosphoryloxy)-2-hydroxy-propyl ester (Ferguson et al., Org Lett 2006, 8 (10), 2023) was labeled with MR121 fluorophore (CAS 185308-24-1, 1-(3-carboxypropyl)-11-ethyl-1,2,3,4,8,9,10,11-octahydro-dipyrido[3,2-b:2′,3′-i]phenoxazin-13-ium) on the free amine of the ethanolamine side and then, after deprotection, subsequently with tryptophan on the side of the aminohexanoic acid.
Assay working solutions were made as follows:
Assay buffer (50 mM Tris-HCl, 140 mM NaCl, 5 mM KCl, 1 mM CaCl2, 1 mM MgCl2, 0.01% Triton-X-100, pH 8.0;
ATX solution: ATX (human His-tagged) stock solution (1.08 mg/mL in 20 mM bicine, pH 8.5, 0.15 M NaCl, 10% glycerol, 0.3% CHAPS, 0.02% NaN3), diluted to 1.4-2.5× final concentration in assay buffer;
MR121 substrate solution: MR121 substrate stock solution (800 μM MR121 substrate in DMSO), diluted to 2-5× final concentration in assay buffer.
Test compounds (10 mM stock in DMSO, 8 μL) were obtained in 384 well sample plates (Corning Costar #3655) and diluted with 8 μL DMSO. Row-wise serial dilutions were made by transferring 8 μL cpd solution to the next row up to row O. The compound and control solutions were mixed five times and 2 μL were transferred to 384 well assay plates (Corning Costar #3702). Then, 15 μL of 41.7 nM ATX solution was added (30 nM final concentration), mixed five times and then incubated for 15 minutes at 30° C. 10 μL of MR121 substrate solution was added (1 μM final concentration), mixed 30 times and then incubated for 15 minutes at 30° C.
`Cc1cc(OCc2n[nH]c(=O)n2C)c(C(C)(C)C)cc1Cl` [Example A1, 3-[(2-tert-Butyl-4-chloro-5-methylphenoxy)methyl]-4-methyl-1H-1,2,4-triazol-5-one]: the IC50 is 2 nM.

Take `Cn1c(COc2cc(F)c(Cl)cc2C(C)(C)C)n[nH]c1=O` [Example A2]: half-maximal inhibition (IC50) required 10 nM.

In turn, `CC(C)c1cc2c(cc1OCc1n[nH]c(=O)n1C)C(C)(C)CC2` [Example A3] registered an IC50 of 25 nM.

Compound `Cc1noc(-c2ccc(OCc3n[nH]c(=O)n3C)c(C(C)(C)C)c2)n1` [Example A4] returned an IC50 of 59 nM.

`Cn1ccnc1-c1ccc(OCc2n[nH]c(=O)n2C)c(C(C)(C)C)c1` [Example A6] displayed an IC50 of 523 nM.

The compound `Cn1c(COc2ccc(-c3ncco3)cc2C(C)(C)C)n[nH]c1=O` [Example A7] had an IC50 of 13 nM.

Consider `Cn1c(COc2ccc(N3CCOCC3)cc2C(C)(C)C)n[nH]c1=O` [Example A8], for which half-maximal inhibition (IC50) was put at 1600 nM.

The compound `Cn1cncc1-c1ccc(OCc2n[nH]c(=O)n2C)c(C(C)(C)C)c1` [Example A9] returned an IC50 of 2610 nM.

In turn, `Cc1nnc(-c2ccc(OCc3n[nH]c(=O)n3C)c(C(C)(C)C)c2)o1` [Example A10] came in with an IC50 of 104 nM.

On to `CC(C)c1cc(C#N)ccc1OCc1n[nH]c(=O)n1C` [Example A11], for which it took 15 nM to reach half-maximal inhibition (IC50).

`Cc1cc(OCc2n[nH]c(=O)n2C)c(C(C)C)cc1C#N` [Example A12] came in with an IC50 of 1 nM.

Consider `Cn1c(COc2cc(S(C)(=O)=O)c(Cl)cc2C2CC2)n[nH]c1=O` [Example A14], for which the IC50 was 1890 nM.

Compound `Cn1c(COc2ccc(S(C)(=O)=O)cc2C(C)(C)C)n[nH]c1=O` [Example A15] had an IC50 of 230 nM.

For `Cc1cc(OCc2n[nH]c(=O)n2C)c(C(C)(C)C)cc1C#N` [Example A16], the IC50 was 5 nM.

With `Cc1cc(C(C)(C)C)c(OCc2n[nH]c(=O)n2C)cc1C#N` [Example A17], the IC50 turned out to be 35 nM.

In turn, `Cc1cc(OCc2n[nH]c(=O)n2C)c(C2CC2)cc1Cl` [Example A19] registered an IC50 of 15 nM.

`Cc1cc(OCc2n[nH]c(=O)n2C)c(C2CCCCC2)cc1Cl` [Example A20] showed a half-inhibitory concentration (IC50) of 8 nM.

For `Cc1cc(OCc2n[nH]c(=O)n2C)c(C2CCOCC2)cc1Cl` [Example A21], half-maximal inhibition (IC50) was put at 62 nM.

For the compound `Cn1c(COc2cc(C#N)c(Cl)cc2C2CC2)n[nH]c1=O` [Example A22], the IC50 amounted to 173 nM.

Consider `Cn1c(COc2cc(NS(C)(=O)=O)c(Cl)cc2C2CC2)n[nH]c1=O` [Example A23], for which the IC50 was over 27000 nM.

On to `Cn1c(COc2cc(C#N)ccc2C(C)(C)C)n[nH]c1=O` [Example A24], for which 91 nM corresponded to half-maximal inhibition (IC50).

With `Cn1c(COc2cc(C(N)=O)ccc2C(C)(C)C)n[nH]c1=O` [Example A25], the IC50 was 958 nM.

For `Cc1cc(OCc2n[nH]c(=O)n2C(C)C)c(C(C)(C)C)cc1C#N` [Example A26, 5-tert-Butyl-2-methyl-4-[(5-oxo-4-propan-2-yl-1H-1,2,4-triazol-3-yl)methoxy]benzonitrile], the IC50 came to 12 nM.

In turn, `Cc1ccc(C(C)C)c(OCc2n[nH]c(=O)n2C)c1` [Example A27, 4-Methyl-3-[(5-methyl-2-propan-2-ylphenoxy)methyl]-1H-1,2,4-triazol-5-one] showed a half-maximal inhibitory concentration (IC50) of 19 nM.

For `Cc1cc(OCc2n[nH]c(=O)n2C)c(C(C)C)cc1Cl` [Example A28], the IC50 turned out to be 5 nM.

The compound `CC(C)c1cc(Cl)ccc1OCc1n[nH]c(=O)n1C` [Example A29] gave an IC50 of 50 nM.

On to `Cc1nc2cc(OCc3n[nH]c(=O)n3C)c(C3CC3)cc2s1` [Example A30], for which the IC50 amounted to 9 nM.

Regarding `Cc1cc(OCc2n[nH]c(=O)n2C)c(C2CCC2)cc1Cl` [Example A31], the IC50 was 19 nM.

The compound `Cn1c(COc2ccc(-c3ncc[nH]3)cc2C(C)(C)C)n[nH]c1=O` [Example A32, 3-[[2-tert-butyl-4-(1H-imidazol-2-yl)phenoxy]methyl]-4-methyl-1H-1,2,4-triazol-5-one] returned an IC50 of 3770 nM.

Compound `Cn1c(COc2cc(C#N)c(Cl)cc2C(C)(C)C)n[nH]c1=O` [Example A34, 4-tert-Butyl-2-chloro-5-[(4-methyl-5-oxo-1H-1,2,4-triazol-3-yl)methoxy]benzonitrile] showed an IC50 of 28 nM.

Consider `Cc1cc(OCc2n[nH]c(=O)n2C)c(-c2ccccc2)cc1Cl` [Example B1, 3-[(4-Chloro-5-methyl-2-phenylphenoxy)methyl]-4-methyl-1H-1,2,4-triazol-5-one], for which the midpoint of inhibition, the IC50, lay at 3 nM.

Compound `Cc1cc(OCc2n[nH]c(=O)n2C)c(-c2ccccc2Cl)cc1Cl` [Example B2] showed an IC50 of 1 nM.

On to `Cc1cc(OCc2n[nH]c(=O)n2C)c(-c2cccc(Cl)c2)cc1Cl` [Example B3], for which it took 1 nM to reach half-maximal inhibition (IC50).

`Cc1cc(OCc2n[nH]c(=O)n2C)c(-c2ccc(Cl)cc2)cc1Cl` [Example B4] displayed an IC50 of 6 nM.

`Cc1cc(OCc2n[nH]c(=O)n2C)c(-c2cccc(C#N)c2)cc1Cl` [Example B5] registered an IC50 of 3 nM.

`Cc1cc(OCc2n[nH]c(=O)n2C)c(-c2cccc(S(C)(=O)=O)c2)cc1Cl` [Example B6]: the IC50 was 8 nM.

For the compound `Cc1cc(OCc2n[nH]c(=O)n2C)c(-c2ccccc2S(C)(=O)=O)cc1Cl` [Example B7], the IC50 was 4200 nM.

As for `Cc1cc(OCc2n[nH]c(=O)n2C)c(-c2cccc(C(=O)N3CCCCC3)c2)cc1Cl` [Example B8], inhibition was half-maximal at 10 nM (IC50).

As to `Cc1cc(OCc2n[nH]c(=O)n2C)c(-c2cccc(C(=O)NC3CCCCC3)c2)cc1Cl` [Example B9], the IC50 was 12 nM.

For the compound `Cc1cc(OCc2n[nH]c(=O)n2C)c(-c2cccc(C(=O)N3CCOCC3)c2)cc1Cl` [Example B10], the IC50 was 23 nM.

On to `Cc1cc(OCc2n[nH]c(=O)n2C)c(-c2cccc(C(N)=O)c2)cc1Cl` [Example B11], for which the IC50 came to 166 nM.

With `Cc1cc(OCc2n[nH]c(=O)n2C)c(-c2cccc(C(=O)N(C)C)c2)cc1Cl` [Example B12], it took 22 nM to reach half-maximal inhibition (IC50).

Turning to `Cc1cc(OCc2n[nH]c(=O)n2C)c(-c2cccc(C(=O)Nc3ccccc3)c2)cc1Cl` [Example B13], inhibition was half-maximal at 6 nM (IC50).

With `Cc1cc(OCc2n[nH]c(=O)n2C)c(-c2cc(Cl)cc(C(N)=O)c2)cc1Cl` [Example B14], the IC50 came out at 79 nM.

Compound `Cc1cc(OCc2n[nH]c(=O)n2C)c(-c2cc(C(=O)NC3CC3)ccc2F)cc1Cl` [Example B15] showed an IC50 of 11 nM.

The compound `Cn1c(COc2ccc(C#N)cc2-c2ccccc2)n[nH]c1=O` [Example B16] came in with an IC50 of 25 nM.

In turn, `COCCNC(=O)c1cccc(-c2cc(Cl)c(C)cc2OCc2n[nH]c(=O)n2C)c1` [Example B17] yielded an IC50 of 16 nM.

With `Cc1cc(OCc2n[nH]c(=O)n2C)c(-c2cccnc2Cl)cc1Cl` [Example B18], the IC50 was determined as 52 nM.

As to `Cc1cc(OCc2n[nH]c(=O)n2C)c(-c2cccc(Cl)n2)cc1Cl` [Example B19], the IC50 is 65 nM.

Consider `Cc1cc(OCc2n[nH]c(=O)n2C)c(-c2cncc(C(N)=O)c2)cc1Cl` [Example B20], for which half-maximal inhibition (IC50) required 913 nM.

In the case of `COc1cccc(-c2cc(Cl)c(C)cc2OCc2n[nH]c(=O)n2C)n1` [Example B21], inhibition was half-maximal at 104 nM (IC50).

As to `Cc1cc(OCc2n[nH]c(=O)n2C)c(-c2cnccn2)cc1Cl` [Example B22, 3-[(4-Chloro-5-methyl-2-pyrazin-2-ylphenoxy)methyl]-4-methyl-1H-1,2,4-triazol-5-one], the IC50 is 227 nM.

Consider `Cc1cc(OCc2n[nH]c(=O)n2C)c(-c2ncccn2)cc1Cl` [Example B23, 3-[(4-Chloro-5-methyl-2-pyrimidin-2-yl-phenoxy)methyl]-4-methyl-1H-1,2,4-triazol-5-one], for which the IC50 turned out to be 212 nM.

`Cc1cc(OCc2n[nH]c(=O)n2C)c(-c2cc(C(F)(F)F)nn2C)cc1Cl` [Example B24, 3-[[4-Chloro-5-methyl-2-[2-methyl-5-(trifluoromethyl)pyrazol-3-yl]phenoxy]methyl]4-methyl-1H-1,2,4-triazol-5-one] yielded an IC50 of 126 nM.

With `Cc1cc(OCc2n[nH]c(=O)n2C)c(-c2ccno2)cc1Cl` [Example B25], half-maximal inhibition (IC50) was put at 20 nM.

`Cc1cc(OCc2n[nH]c(=O)n2C)c(-c2cnco2)cc1Cl` [Example B26] registered an IC50 of 495 nM.

Compound `Cc1cc(OCc2n[nH]c(=O)n2C)c(-c2cncn2C)cc1Cl` [Example B27, 3-[[4-Chloro-5-methyl-2-(3-methylimidazol-4-yl)phenoxy]methyl]-4-methyl-1H-1,2,4-triazol-5-one] registered an IC50 of 3720 nM.

On to `Cc1cc(OCc2n[nH]c(=O)n2C)c(-c2cnc[nH]2)cc1Cl` [Example B28, 3-[[4-Chloro-2-(1H-imidazol-5-yl)-5-methylphenoxy]methyl]-4-methyl-1H-1,2,4-triazol-5-one], for which the IC50 amounted to 5940 nM.
